Experimental findings from patent publication US9290459B1, “Substituted bicyclic dihydropyrimidinones and their use as inhibitors of neutrophil elastase activity” (Boehringer Ingelheim International GmbH, priority 2013, dated 2016) are described below.

This test concerns the target Human neutrophil elastase (Homo sapiens (Human), UniProt P08246). Briefly: Human Neutrophil Elastase Assay. It is filed as biochemical. As to conditions: human neutrophil elastase, substrate MeOSuc-Ala-Ala-Pro-Val-AMC 250 μM, pH 7.5; read-out: IC50.

Each structure is given as a SMILES string. pIC50: −log10 of the molar value.

Human neutrophil elastase, sequence (P08246 30-247): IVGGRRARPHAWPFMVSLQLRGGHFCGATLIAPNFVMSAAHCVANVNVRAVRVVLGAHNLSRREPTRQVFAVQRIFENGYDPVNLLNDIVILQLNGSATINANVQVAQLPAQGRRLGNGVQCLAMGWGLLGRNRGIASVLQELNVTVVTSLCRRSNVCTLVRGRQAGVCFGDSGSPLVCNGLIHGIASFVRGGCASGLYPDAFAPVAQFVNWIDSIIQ

One may read the pIC50 as the IC50 on a negative log10 scale, so that one unit is a factor of ten. As to `CC(C)(O)CNC(=O)N1C(=O)N(c2cccc(C(F)F)c2)C2=C(C(=O)CC2)C1c1ccc(C#N)cc1S(C)(=O)=O` (stereo not drawn) [Example 53.5], the pIC50 is > 9.00.
For `CS(=O)(=O)c1cc(C#N)ccc1C1C2=C(CCC2=O)N(c2cccc(C(F)(F)F)c2)C(=O)N1S(C)(=O)=O` (stereo not drawn) [Example 37.3] the value was 8.72; for `CS(=O)(=O)c1cc(C#N)ccc1C1C2=C(CCC2=O)N(c2ccnc(C(F)(F)F)c2)C(=O)N1S(C)(=O)=O` (stereo not drawn) [Example 39, 3-(Methylsulfonyl)-4-(3-(methylsulfonyl)-2,5-dioxo-1-(2-(trifluoromethyl)pyridin-4-yl)-2,3,4,5,6,7-hexahydro-1H-cyclopenta[d]pyrimidin-4-yl)benzonitrile], 8.15.
For `COCCNC(=O)N1C(=O)N(c2cccc(C(F)(F)F)c2)C2=C(C(=O)CC2)C1c1ccc(C#N)cc1F` (stereo not drawn) [Example 49.2] the value was 8.89.
Take `Cc1cc(C#N)ccc1C1C2=C(CCC2=O)N(c2cccc(C(F)(F)F)c2)C(=O)N1S(C)(=O)=O` (stereo not drawn) [Example 37.1]: the pIC50 is 8.43.
Under `CC(C(=O)NCCO)N1C(=O)N(c2cccc(C(F)(F)F)c2)C2=C(C(=O)CC2)C1c1ccc(C#N)cc1` (stereo not drawn) [Example 20, 2-(4-(4-Cyanophenyl)-2,5-dioxo-1-(3-(trifluoromethyl)phenyl)-6,7-dihydro-1H-cyclopenta[d]pyrimidin-3(2H,4H,5H)-yl)-N-(2-hydroxyethyl)propanamide] stands 8.04; under `N#Cc1ccc(C2NC(=O)N(c3cccc(C(F)F)c3)C3=C2C(=O)CC3)cc1` (stereo not drawn) [Example 11, 4-(1-(3-(Difluoromethyl)phenyl)-2,5-dioxo-2,3,4,5,6,7-hexahydro-1H-cyclopenta[d]-pyrimidin-4-yl)benzonitrile], 7.43.
`CS(=O)(=O)c1cc(C#N)ccc1[C@@H]1C2=C(CCC2=O)N(c2cccc(C(F)(F)F)c2)C(=O)N1C(=O)NC1C2CC1C2` (stereo partly drawn) [Example 48.2]: the pIC50 was > 9.00.
Under `CCNC(=O)N1C(=O)N(c2ccnc(C(F)(F)F)c2)C2=C(C(=O)CC2)C1c1ccc(C#N)cc1S(C)(=O)=O` (racemic) [Example 56.2] stands > 9.00; under `CS(=O)(=O)c1cc(C#N)ccc1[C@@H]1C2=C(CCC2=O)N(c2cccc(C(F)(F)F)c2)C(=O)N1C(=O)NC1CCOCC1` [Example 47.15], > 9.00; under `COC(=O)CN1C(=O)N(c2cccc(C(F)(F)F)c2)C2=C(C(=O)CC2)C1c1ccc(C#N)cc1` (stereo not drawn) [Example 3, Methyl 2-(4-(4-Cyanophenyl)-2,5-dioxo-1-(3-(trifluoromethyl)phenyl)-6,7-dihydro-1H-cyclopenta[d]pyrimidin-3(2H,4H,5H)-yl)acetate], 7.77.
For `N#Cc1ccc(C2C3=C(CCC3=O)N(c3cccc(C(F)F)c3)C(=O)N2C(=O)NCCCO)cc1` (stereo not drawn) [Example 52, 4-(4-Cyanophenyl)-1-(3-(difluoromethyl)phenyl)-N-(3-hydroxypropyl)-2,5-dioxo-4,5,6,7-tetrahydro-1H-cyclopenta[d]pyrimidine-3(2H)-carboxamide] the value was > 9.00; for `CS(=O)(=O)c1cc(C#N)ccc1[C@@H]1C2=C(CCC2=O)N(c2cccc(C(F)(F)F)c2)C(=O)N1C(=O)NCC1CC(O)C1` (stereo partly drawn) [Example 47.16], > 9.00; for `CN(C)C(=O)N1C(=O)N(c2cccc(C(F)(F)F)c2)C2=C(C(=O)CC2)C1c1ccc(C#N)cc1` (stereo not drawn) [Example 7, 4-(4-Cyanophenyl)-N,N-dimethyl-2,5-dioxo-1-(3-(trifluoromethyl)phenyl)-4,5,6,7-tetrahydro-1H-cyclopenta[d]pyrimidine-3(2H)-carboxamide], 6.91.
For `CCS(=O)(=O)c1cc(C#N)ccc1C1C2=C(CCC2=O)N(c2cccc(C(F)(F)F)c2)C(=O)N1C` (stereo not drawn) [Example 27.3] the value was 8.92; for `CC(C)(O)CNC(=O)N1C(=O)N(c2cccc(C(F)(F)F)c2)C2=C(C(=O)CC2)C1c1ccc(C#N)cc1` (stereo not drawn) [Example 41, 4-(4-Cyanophenyl)-N-(2-hydroxy-2-methylpropyl)-2,5-dioxo-1-(3-(trifluoromethyl)-phenyl)-4,5,6,7-tetrahydro-1H-cyclopenta[d]pyrimidine-3(2H)-carboxamide], 8.85.
For `CS(=O)(=O)c1cc(C#N)ccc1C1C2=C(CCC2=O)N(c2cccc(C(F)(F)F)c2)C(=O)N1CC1CCOCC1` (stereo not drawn) [Example 24.5], the pIC50 was 8.77.
As to `CNC(=O)N1C(=O)N(c2cccc(C(F)(F)F)c2)C2=C(C(=O)CC2)C1c1ccc(C#N)cc1[S+](C)[O-]` (stereo not drawn) [Example 50.5], the pIC50 is > 9.00.
Take `COc1cc(C#N)ccc1C1C2=C(CCC2=O)N(c2cccc(C(F)(F)F)c2)C(=O)N1S(C)(=O)=O` (stereo not drawn) [Example 38.2]: the pIC50 is 7.47.
On to `CS(=O)(=O)c1cc(C#N)ccc1[C@@H]1C2=C(CCC2=O)N(c2cccc(C(F)(F)F)c2)C(=O)N1C(=O)NCC1(O)CCC1` [Example 47.17], for which the pIC50 is > 9.00.
For `CN1C(=O)N(c2ccnc(C(F)(F)F)c2)C2=C(C(=O)CC2)C1c1ccc(C#N)cc1` (stereo not drawn) [Example 28, 4-(3-Methyl-2,5-dioxo-1-(2-(trifluoromethyl)pyridin-4-yl)-2,3,4,5,6,7-hexahydro-1H-cyclopenta[d]pyrimidin-4-yl)benzonitrile] the value was 7.44.
For `CS(=O)(=O)c1cc(C#N)ccc1[C@@H]1NC(=O)N(c2cccc(C(F)(F)F)c2)C2=C1C(=O)CC2` [Example 10B, (R)-4-(2,5-Dioxo-1-(3-(trifluoromethyl)phenyl)-2,3,4,5,6,7-hexahydro-1H-cyclopenta[d]pyrimidin-4-yl)-3-(methylsulfonyl)benzonitrile], the pIC50 is 7.01.
For `CCNC(=O)N1C(=O)N(c2cccc(C(F)(F)F)c2)C2=C(C(=O)CC2)C1c1ccc(C#N)cc1F` (stereo not drawn) [Example 49.1] the value was 8.92; for `N#Cc1ccc(C2C3=C(CCC3=O)N(c3cccc(C(F)(F)F)c3)C(=O)N2CC(N)=O)cc1` (stereo not drawn) [Example 5, 2-(4-(4-Cyanophenyl)-2,5-dioxo-1-(3-(trifluoromethyl)phenyl)-6,7-dihydro-1H-cyclopenta[d]pyrimidin-3(2H,4H,5H)-yl)acetamide], 7.95.
Under `N#Cc1ccc(C2NC(=O)N(c3cccc(C(F)(F)F)c3)C3=C2C(=O)CC3)c(Br)c1` (stereo not drawn) [Example 13, 3-Bromo-4-(2,5-dioxo-1-(3-(trifluoromethyl)phenyl)-2,3,4,5,6,7-hexahydro-1H-cyclopenta[d]pyrimidin-4-yl)benzonitrile] stands 7.75; under `C[S+]([O-])c1cc(C#N)ccc1C1NC(=O)N(c2cccc(C(F)(F)F)c2)C2=C1C(=O)CC2` (single isomer, unassigned) [Example 17B, 4-(2,5-dioxo-1-(3-(trifluoromethyl)phenyl)-2,3,4,5,6,7-hexahydro-1H-cyclopenta[d]pyrimidin-4-yl)-3-(methylsulfinyl)benzonitrile], 8.03.
Under `CS(=O)(=O)N1C(=O)N(c2ccnc(C(F)(F)F)c2)C2=C(C(=O)CC2)C1c1ccc(C#N)cc1` (stereo not drawn) [Example 57, 4-(3-(Methylsulfonyl)-2,5-dioxo-1-(2-(trifluoromethyl)pyridin-4-yl)-2,3,4,5,6,7-hexahydro-1H-cyclopenta[d]pyrimidin-4-yl)benzonitrile] stands 7.46; under `N#Cc1ccc(C2C3=C(CCC3=O)N(c3cccc(C(F)(F)F)c3)C(=O)N2CC(=O)N2CCSCC2)cc1` (stereo not drawn) [Example 6, 4-(2,5-Dioxo-3-(2-oxo-2-thiomorpholinoethyl)-1-(3-(trifluoromethyl)phenyl)-2,3,4,5,6,7-hexahydro-1H-cyclopenta[d]pyrimidin-4-yl)benzonitrile], 8.52; under `CS(=O)(=O)c1cc(C#N)ccc1[C@@H]1C2=C(CCC2=O)N(c2cccc(C(F)(F)F)c2)C(=O)N1C(=O)N[C@H]1CCCC[C@@H]1O` [Example 47.21], > 9.00.
As to `N#Cc1ccc(C2C3=C(CCC3=O)N(c3ccnc(C(F)(F)F)c3)C(=O)N2C(=O)NC2CC2)cc1` (racemic) [Example 54.3], the pIC50 was 8.82.
For `CSc1cc(C#N)ccc1C1NC(=O)N(c2cccc(C(F)(F)F)c2)C2=C1C(=O)CC2` (stereo not drawn) [Example 16, 4-(2,5-Dioxo-1-(3-(trifluoromethyl)phenyl)-2,3,4,5,6,7-hexahydro-1H-cyclopenta[d]-pyrimidin-4-yl)-3-(methylthio)benzonitrile] the value was 7.83.
For `N#Cc1ccc([C@H]2NC(=O)N(c3cccc(C(F)(F)F)c3)C3=C2C(=O)CC3)nc1` [Example 15.3A, (S)-6-(2,5-Dioxo-1-(3-(trifluoromethyl)phenyl)-2,3,4,5,6,7-hexahydro-1H-cyclopenta[d]pyrimidin-4-yl)nicotinonitrile] the value was 7.50; for `CNC(=O)N1C(=O)N(c2cccc(C(F)(F)F)c2)C2=C(C(=O)CC2)C1c1ccc(C#N)cc1C` (stereo not drawn) [Example 50.2], > 9.00.
Under `CCNC(=O)N1C(=O)N(c2cccc(C(F)(F)F)c2)C2=C(C(=O)CC2)C1c1ccc(C#N)cc1S(=O)(=O)CC` (stereo not drawn) [Example 51.3] stands > 9.00; under `CS(=O)(=O)c1cc(C#N)ccc1[C@@H]1C2=C(CCC2=O)N(c2cccc(C(F)(F)F)c2)C(=O)N1C(=O)NCC#N` [Example 47.3], > 9.00; under `CC(C)(CO)NC(=O)N1C(=O)N(c2cccc(C(F)(F)F)c2)C2=C(C(=O)CC2)[C@H]1c1ccc(C#N)cc1S(C)(=O)=O` [Example 47.14], > 9.00.
As for `CC(C)NC(=O)N1C(=O)N(c2ccnc(C(F)(F)F)c2)C2=C(C(=O)CC2)C1c1ccc(C#N)cc1` (racemic) [Example 54.4], the pIC50 was 8.62.
In the case of `CN1C(=O)N(c2cccc(C(F)F)c2)C2=C(C(=O)CC2)[C@@H]1c1ccc(C#N)cc1` [Example 26B, (S)-4-(1-(3-(Difluoromethyl)phenyl)-3-methyl-2,5-dioxo-2,3,4,5,6,7-hexahydro-1H-cyclopenta[d]pyrimidin-4-yl)benzonitrile], the pIC50 was 5.47.
Turning to `CNC(=O)N1C(=O)N(c2cccc(C(F)(F)F)c2)C2=C(C(=O)CC2)[C@@H]1c1ccc(C#N)cc1F` [Example 49B, (R)-4-(4-Cyano-2-fluorophenyl)-N-methyl-2,5-dioxo-1-(3-(trifluoromethyl)phenyl)-4,5,6,7-tetrahydro-1H-cyclopenta[d]pyrimidine-3(2H)-carboxamide], the pIC50 was 6.76.
